In patent US9469615B2, “Quinoxalines and AZA-quinoxalines as CRTH2 receptor modulators” (Merck Sharp & Dohme Corp., priority 2010, dated 2016):

Target: T1, hCRTH2 (Homo sapiens, UniProt Q9Y5Y4)
T1 construct: expressed in transfected cells; host or cells: HEK (human embryonic kidney) cells expressing hCRTH2; membrane preparation
T1 sequence (Q9Y5Y4 1-395): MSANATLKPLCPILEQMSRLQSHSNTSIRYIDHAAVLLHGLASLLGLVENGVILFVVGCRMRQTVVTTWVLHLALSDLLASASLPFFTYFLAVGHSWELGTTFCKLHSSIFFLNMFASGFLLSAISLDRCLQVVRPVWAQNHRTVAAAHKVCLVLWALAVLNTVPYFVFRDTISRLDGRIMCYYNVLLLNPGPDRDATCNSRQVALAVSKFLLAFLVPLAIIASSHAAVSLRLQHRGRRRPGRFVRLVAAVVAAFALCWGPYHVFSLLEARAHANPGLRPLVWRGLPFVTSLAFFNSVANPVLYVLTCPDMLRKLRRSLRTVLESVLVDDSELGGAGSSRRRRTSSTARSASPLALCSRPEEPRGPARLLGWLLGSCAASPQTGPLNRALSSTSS
Assay: Radioligand binding assay ([3H]PGD2 competition, HEK-hCRTH2 membranes)
Details: [3H]PGD2 binding, values in text
Summary of the method: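 Using membranes of an HEK line stably carrying hCRTH2, ligands were tested against [3H]PGD2 (3.0 nM) in pH 7.4 Tris buffer containing 2 mM MnCl2 and 1 mM EDTA. After one hour at room temperature, filters were washed cold and counted.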

Compound	Ki [nM]
O=C(O)CCCCc1nc2cc(C(=O)N[C@H]3CCOc4ccccc43)ccc2nc1-c1ccc(Cl)cc1 [compound 507, (S)-5-(3-(4-chlorophenyl)-7-(chroman-4-ylcarbamoyl)quinoxalin-2-yl)pentanoic acid]	1.3
Cc1cc2nc(-c3ccccc3)c(CCCCC(=O)O)nc2cc1C(=O)N[C@@H]1CCCc2ccccc21 [compound 526, (R)-5-(6-methyl-3-phenyl-7-((1,2,3,4-tetrahydronaphthalen-1-yl)carbamoyl)quinoxalin-2-yl)pentanoic acid]	259

Same assay, conditions: [3H]PGD2 competition, Table B

Compound	Ki [nM]
C[C@@H]1CN(c2ccccc2)CCN1C(=O)c1ccc2nc(-c3ccc(Cl)cc3)c(CCCCC(=O)O)nc2c1 [compound 498, (R)-5-(3-(4-chlorophenyl)-7-(2-methyl-4-phenyl-piperazine-1-carbonyl)quinoxalin-2-yl)pentanoic acid]	2.1 to 20
C[C@@H]1CN(c2ccccc2)CCN1C(=O)c1ccc2nc(-c3ccc(F)cc3)c(CCCCC(=O)O)nc2c1 [compound 499, (R)-5-(3-(4-fluorophenyl)-7-(2-methyl-4-phenyl-piperazine-1-carbonyl)quinoxalin-2-yl)pentanoic acid]	2.1 to 20
O=C(N[C@@H]1CCCc2ccccc21)c1ccc2nc(-c3ccc(F)cc3)c(CC[C@@H]3C[C@H]3C(=O)O)nc2c1 [compound 500, (1R,2R)-2-(2-(3-(4-fluorophenyl)-7-(((R)-1,2,3,4-tetrahydronaphthalen-1-yl)carbamoyl)quinoxalin-2-yl)ethyl)cyclopropane-carboxylic acid]	2.1 to 20
O=C(N[C@@H]1CCCc2ccccc21)c1ccc2nc(-c3ccc(F)cc3)c(CCC3CC3C(=O)O)nc2c1 (stereo partly drawn) [compound 501, 2-(2-(3-(4-fluorophenyl)-7-(((R)-1,2,3,4-tetrahydronaphthalen-1-yl)carbamoyl)quinoxalin-2-yl)ethyl)cyclopropane-carboxylic acid]	20.1 to 200
O=C(O)CCCCc1nc2cc(C(=O)NC3CCCc4cc(C(F)(F)F)cnc43)ccc2nc1-c1ccccc1 (centres unmarked) [compound 502, 5-(3-phenyl-7-((3-(trifluoromethyl)-5,6,7,8-tetrahydroquinolin-8-yl)carbamoyl)quinoxalin-2-yl)pentanoic acid]	20.1 to 200
O=C(O)CCCCc1nc2cc(C(=O)N[C@@H]3CCCc4ncccc43)ccc2nc1-c1ccccc1 [compound 503, (R)-5-(3-phenyl-7-((5,6,7,8-tetrahydroquinolin-5-yl)carbamoyl)quinoxalin-2-yl)pentanoic acid]	20.1 to 200
O=C(O)CCCCc1nc2cc(C(=O)N[C@H]3CCCc4ncccc43)ccc2nc1-c1ccccc1 [compound 504, (S)-5-(3-phenyl-7-((5,6,7,8-tetrahydroquinolin-5-yl)carbamoyl)quinoxalin-2-yl)pentanoic acid]	2.1 to 20
O=C(O)CCCCc1nc2cc(C(=O)NC3CCCc4cnccc43)ccc2nc1-c1ccccc1 (centres unmarked) [compound 505, 5-(3-phenyl-7-((5,6,7,8-tetrahydroisoquinolin-5-yl)carbamoyl)quinoxalin-2-yl)pentanoic acid]	2.1 to 20
O=C(O)CCCCc1nc2cc(C(=O)N[C@@H]3CCOc4ccccc43)ccc2nc1-c1ccc(Cl)cc1 [compound 506]	0.1 to 2
O=C(O)CCCCc1nc2cc(C(=O)N[C@H]3CCOc4ccccc43)ccc2nc1-c1ccc(Cl)cc1 [compound 507, (S)-5-(3-(4-chlorophenyl)-7-(chroman-4-ylcarbamoyl)quinoxalin-2-yl)pentanoic acid]	0.1 to 2
O=C(O)CCCCc1nc2cc(C(=O)N[C@H]3c4ccccc4C[C@H]3O)ccc2nc1-c1ccc(F)cc1 [compound 508, 5-(3-(4-fluorophenyl)-7-(((1S,2R)-2-hydroxy-2,3-dihydro-1H-inden-1-yl)carbamoyl)quinoxalin-2-yl)pentanoic acid]	2.1 to 20
O=C(O)CCCCc1nc2cc(C(=O)N[C@@H]3c4ccccc4C[C@@H]3O)ccc2nc1-c1ccc(F)cc1 [compound 509, 5-(3-(4-fluorophenyl)-7-(((1R,2S)-2-hydroxy-2,3-dihydro-1H-inden-1-yl)carbamoyl)quinoxalin-2-yl)pentanoic acid]	20.1 to 200
O=C(O)CCCCc1nc2cc(C(=O)N[C@@H]3c4ccccc4C[C@H]3O)ccc2nc1-c1ccc(F)cc1 [compound 510, 5-(3-(4-fluorophenyl)-7-(((1R,2R)-2-hydroxy-2,3-dihydro-1H-inden-1-yl)carbamoyl)quinoxalin-2-yl)pentanoic acid]	20.1 to 200
O=C(O)CCCCc1nc2cc(C(=O)N[C@H]3c4ccccc4C[C@@H]3O)ccc2nc1-c1ccc(F)cc1 [compound 511, 5-(3-(4-fluorophenyl)-7-(((1S,2S)-2-hydroxy-2,3-dihydro-1H-inden-1-yl)carbamoyl)quinoxalin-2-yl)pentanoic acid]	2.1 to 20
O=C(O)CCCCc1nc2cc(C(=O)N[C@@H]3CCOc4ccccc43)ccc2nc1-c1ccccc1 [compound 512, (R)-5-(7-(chroman-4-ylcarbamoyl)-3-phenylquinoxalin-2-yl)pentanoic acid]	0.1 to 2
O=C(O)CCCCc1nc2cc(C(=O)N[C@H]3CCOc4ccccc43)ccc2nc1-c1ccccc1 [compound 513, (S)-5-(7-(chroman-4-ylcarbamoyl)-3-phenylquinoxalin-2-yl)pentanoic acid]	0.1 to 2
C[C@H]1CN(c2ccccc2)CCN1C(=O)c1ccc2nc(-c3ccc(Cl)cc3)c(CCCCC(=O)O)nc2c1 [compound 514, (S)-5-(3-(4-chlorophenyl)-7-(2-methyl-4-phenyl-piperazine-1-carbonyl)quinoxalin-2-yl)pentanoic acid]	2.1 to 20
C[C@H]1CN(c2ccccc2)CCN1C(=O)c1ccc2nc(-c3ccc(F)cc3)c(CCCCC(=O)O)nc2c1 [compound 515, (S)-5-(3-(4-fluorophenyl)-7-(2-methyl-4-phenylpiperazine-1-carbonyl)quinoxalin-2-yl)pentanoic acid]	2.1 to 20
C[C@H]1CN(c2ccc(F)cc2)CCN1C(=O)c1ccc2nc(-c3ccccc3)c(CCCCC(=O)O)nc2c1 [compound 516, (S)-5-(7-(4-(4-fluorophenyl)-2-methylpiperazine-1-carbonyl)-3-phenylquinoxalin-2-yl)pentanoic acid]	2.1 to 20
C[C@@H](CCCc1nc2cc(C(=O)N[C@H](C)c3ccc(Cl)cc3)ccc2nc1-c1ccc(F)cc1)C(=O)O [compound 517, (S)-5-(7-(((R)-1-(4-chlorophenyl)ethyl)carbamoyl)-3-(4-fluorophenyl)quinoxalin-2-yl)-2-methyl-pentanoic acid]	2.1 to 20
C[C@@H](CCCc1nc2cc(C(=O)N[C@@H]3CCCc4cc(F)ccc43)ccc2nc1-c1ccc(F)cc1)C(=O)O [compound 518, (S)-5-(7-(((R)-6-fluoro-1,2,3,4-tetrahydronaphthalen-1-yl)carbamoyl)-3-(4-fluorophenyl)quinoxalin-2-yl)-2-methylpentanoic acid]	2.1 to 20
C[C@@H](CCCc1nc2cc(C(=O)N[C@@H]3CCCc4cc(Cl)ccc43)ccc2nc1-c1ccc(F)cc1)C(=O)O [compound 519, (S)-5-(7-(((R)-6-chloro-1,2,3,4-tetrahydronaphthalen-1-yl)carbamoyl)-3-(4-fluorophenyl)quinoxalin-2-yl)-2-methylpentanoic acid]	2.1 to 20
C[C@@H](CCCc1nc2cc(C(=O)N[C@@H]3CCOc4ccccc43)ccc2nc1-c1ccc(F)cc1)C(=O)O [compound 520, (S)-5-(7-((R)-chroman-4-ylcarbamoyl)-3-(4-fluorophenyl)quinoxalin-2-yl)-2-methylpentanoic acid]	2.1 to 20
C[C@@H](CCCc1nc2cc(C(=O)N[C@@H]3CCCc4ncccc43)ccc2nc1-c1ccc(F)cc1)C(=O)O [compound 521, (S)-5-(3-(4-fluorophenyl)-7-(((R)-5,6,7,8-tetrahydroquinolin-5-yl)carbamoyl)quinoxalin-2-yl)-2-methylpentanoic acid]	20.1 to 200
C[C@@H](CCCc1nc2cc(C(=O)N[C@@H]3CCc4cc(Cl)ccc43)ccc2nc1-c1ccc(F)cc1)C(=O)O [compound 522, (S)-5-(7-(((R)-5-chloro-2,3-dihydro-1H-inden-1-yl)carbamoyl)-3-(4-fluorophenyl)quinoxalin-2-yl)-2-methylpentanoic acid]	2.1 to 20
C[C@@H](CCCc1nc2cc(C(=O)N[C@@H]3CCc4cc(F)ccc43)ccc2nc1-c1ccc(F)cc1)C(=O)O [compound 523, (S)-5-(7-(((R)-5-fluoro-2,3-dihydro-1H-inden-1-yl)carbamoyl)-3-(4-fluorophenyl)quinoxalin-2-yl)-2-methylpentanoic acid]	2.1 to 20
C[C@@H](CCCc1nc2cc(C(=O)N3CCN(c4ccccc4)CC3)ccc2nc1-c1ccc(F)cc1)C(=O)O [compound 524, (S)-5-(3-(4-fluorophenyl)-7-(4-phenylpiperazine-1-carbonyl)quinoxalin-2-yl)-2-methylpentanoic acid]	2.1 to 20
Cc1nnc(CNC(=O)c2ccc3nc(-c4ccc(F)cc4)c(CCCCC(=O)O)nc3c2)o1 [compound 525, 5-(3-(4-fluorophenyl)-7-(((5-methyl-1,3,4-oxadiazol-2-yl)methyl)carbamoyl)quinoxalin-2-yl) pentanoic acid]	20.1 to 200
Cc1cc2nc(-c3ccccc3)c(CCCCC(=O)O)nc2cc1C(=O)N[C@@H]1CCCc2ccccc21 [compound 526, (R)-5-(6-methyl-3-phenyl-7-((1,2,3,4-tetrahydronaphthalen-1-yl)carbamoyl)quinoxalin-2-yl)pentanoic acid]	201 to 700
C[C@@H](NC(=O)c1ccc2nc(-c3ccc(F)cc3)c(CCCC(F)(F)C(=O)O)nc2c1)c1ccc(Cl)cc1 [compound 527, (R)-5-(7-((1-(4-chlorophenyl)ethyl)carbamoyl)-3-(4-fluorophenyl)quinoxalin-2-yl)-2,2-difluoropentanoic acid]	2.1 to 20
